Reference: article PMC11406360, “The enzymatic oxygen sensor cysteamine dioxygenase binds its protein substrates through their N-termini” (The Journal of Biological Chemistry, 2024)
Where a SMILES comes first, the peptide text is derived from it.

T1: ADO (2-aminoethanethiol dioxygenase), iron-bound wild type (Homo sapiens, UniProt Q96SZ5)
T1 construct: Full-length human ADO (UniProt ID: Q96SZ5) was cloned; made in house; host or cells: Rosetta2(DE3) Escherichia coli
T1 sequence (Q96SZ5 1-270): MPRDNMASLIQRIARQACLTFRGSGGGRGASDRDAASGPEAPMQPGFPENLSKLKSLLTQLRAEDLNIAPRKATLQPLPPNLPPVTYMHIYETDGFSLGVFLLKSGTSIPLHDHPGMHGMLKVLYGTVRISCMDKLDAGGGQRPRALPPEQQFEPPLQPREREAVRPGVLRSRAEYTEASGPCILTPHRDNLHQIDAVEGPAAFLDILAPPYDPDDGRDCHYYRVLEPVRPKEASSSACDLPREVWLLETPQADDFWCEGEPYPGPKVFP

T2: ADO-Zn^2+ (Homo sapiens, UniProt Q96SZ5)
T2 construct: Full-length human ADO (UniProt ID: Q96SZ5) was cloned; made in house; host or cells: Rosetta2(DE3) Escherichia coli, M9 minimal media with 0.2 mM Co2+ or Zn2+
T2 sequence (Q96SZ5 1-270): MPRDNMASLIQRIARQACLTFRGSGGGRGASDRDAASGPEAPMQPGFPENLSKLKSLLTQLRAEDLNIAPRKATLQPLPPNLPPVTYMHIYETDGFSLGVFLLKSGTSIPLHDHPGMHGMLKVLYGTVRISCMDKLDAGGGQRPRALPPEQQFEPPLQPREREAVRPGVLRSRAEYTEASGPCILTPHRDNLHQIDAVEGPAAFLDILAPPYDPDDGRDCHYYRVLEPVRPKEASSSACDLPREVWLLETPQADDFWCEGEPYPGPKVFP

T3: ADO-Co^2+ (Homo sapiens, UniProt Q96SZ5)
T3 construct: Full-length human ADO (UniProt ID: Q96SZ5) was cloned; made in house; host or cells: Rosetta2(DE3) Escherichia coli, M9 minimal media with 0.2 mM Co2+ or Zn2+
T3 sequence (Q96SZ5 1-270): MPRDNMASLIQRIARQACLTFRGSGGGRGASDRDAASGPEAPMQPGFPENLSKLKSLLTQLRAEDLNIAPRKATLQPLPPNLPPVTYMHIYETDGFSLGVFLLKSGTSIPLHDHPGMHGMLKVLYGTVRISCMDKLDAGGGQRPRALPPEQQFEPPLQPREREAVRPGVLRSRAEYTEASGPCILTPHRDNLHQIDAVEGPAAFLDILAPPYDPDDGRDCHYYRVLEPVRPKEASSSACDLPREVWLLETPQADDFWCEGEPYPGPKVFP

T4: ADO (Homo sapiens, UniProt Q96SZ5)
T4 construct: Full-length human ADO (UniProt ID: Q96SZ5) was cloned; made in house; host or cells: Rosetta2(DE3) Escherichia coli
T4 sequence (Q96SZ5 1-270): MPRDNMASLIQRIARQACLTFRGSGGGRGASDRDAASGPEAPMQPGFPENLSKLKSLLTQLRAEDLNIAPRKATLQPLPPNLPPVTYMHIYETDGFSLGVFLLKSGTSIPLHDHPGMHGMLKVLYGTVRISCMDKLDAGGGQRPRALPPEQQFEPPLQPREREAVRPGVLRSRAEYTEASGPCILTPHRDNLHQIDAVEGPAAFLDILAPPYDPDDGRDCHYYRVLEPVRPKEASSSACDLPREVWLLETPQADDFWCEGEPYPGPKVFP

T5: ADO-H193D (Homo sapiens, UniProt Q96SZ5, H193D)
T5 construct: Full-length human ADO (UniProt ID: Q96SZ5) was cloned; made in house; host or cells: Rosetta2(DE3) Escherichia coli
T5 sequence (Q96SZ5 1-270 H193D): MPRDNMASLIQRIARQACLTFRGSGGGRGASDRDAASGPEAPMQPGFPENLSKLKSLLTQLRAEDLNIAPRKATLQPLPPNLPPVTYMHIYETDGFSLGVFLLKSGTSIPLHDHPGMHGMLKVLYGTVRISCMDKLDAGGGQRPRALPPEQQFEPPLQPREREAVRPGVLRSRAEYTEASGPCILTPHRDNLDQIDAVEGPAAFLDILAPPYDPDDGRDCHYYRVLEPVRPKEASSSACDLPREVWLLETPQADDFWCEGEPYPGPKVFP


What was measured:
[1] = molecular target: T1, ADO (2-aminoethanethiol dioxygenase), iron-bound wild type; test: SPR binding of peptide/protein substrates to immobilised ADO; settings: SPR steady state, 1:1 binding model, biotinylated ADO on Biotin CAP chip, 4 °C, 20 mM Hepes pH 7.5, 500 mM NaCl, 10 mM DTT, 0.1% tween-20; geometric mean (± SD) of minimum three independent measurements; read-out: Equilibrium dissociation constant KD
Excerpt: ADO catalyzes the O2-dependent sulfinylation of Nt-cys residues, which reportedly bind to the iron cofactor in a monodentate arrangement through ligation of the thiol group ([14], [15]). To test the importance of Nt-cys modifications and substitutions on ADO association, a SPR assay was established. […] Data collected under steady state conditions is presented in the main text and kinetic constants are provided in the Tables S1–S8 (alongside steady state measurements). All measurements were collected at 4 °C to minimize enzyme activity.
(§1) SPR measurements were made using a Biacore T200 (Cytiva) instrument and data were analyzed using the Biacore Insight Evaluation Software (Cytiva; https://www.cytivalifesciences.com/en/us/shop/protein-analysis/spr-label-free-analysis/spr-software-and-extensions/biacore-insight-evaluation-software-p-23528). Biotinylated-ADO was immobilized on a Biotin CAP chip (Cytiva) with a target density of ∼2500 to 3000 RU and peptide/protein substrates were injected over the chip. […] A buffer comprising 20 mM Hepes pH 7.5, 500 mM NaCl, 10 mM DTT, and 0.1% (v/v) tween-20 was used as the running buffer at a flow rate of 50 μl/min.
For metal-chelation experiments, a mixture of 10 mM 1, 10-phenanthroline and 100 mM EDTA (pH 8) was injected onto the chip using 10 × 60 s injections at a 100 μl/min flow rate. […] The instrument and chip were primed into buffer excluding reducing agents before conducting metal chelation and iron reconstitution.

ADO-Zn^2+ [2] = molecular target: T2, ADO-Zn^2+; test: SPR binding to zinc-substituted ADO; settings: SPR steady state, 1:1 model, 4 °C; geometric mean of minimum three independent measurements
Experimental: To study if different metals can compensate for the inherent iron cofactor, zinc (Zn^2+) and cobalt (Co^2+) substituted ADO was produced through minimal media expression, validated by ICP-MS, and analyzed for binding by SPR (Fig. 2E).
as §1

ADO-Zn^2+ [3] = molecular target: T2, ADO-Zn^2+; test: LC-MS turnover time course with zinc-substituted ADO; assay type: biochemical; settings: 100 μM peptide, 0.1 μM enzyme, 37 °C, attributed to residual iron bound ADO
Experimental: (§2) The catalytic functionality of the metal substituted ADO proteins was subsequently assessed by LC-MS using RGS5 peptide as a representative protein substrate. […] However, product formation was observed following long incubation times (≥30 min), with ∼80% conversion detected overnight, which is likely attributed to the activity of residual iron bound ADO (Fig. 2, E and H). Together, these findings indicate that different transition metals can substitute iron to facilitate protein substrate binding but not catalysis.
(§3) The enzymatic activity of ADO was examined by incubating between 0 to 1000 μM peptide and protein substrates with 0.05 to 0.1 μM ADO in a bench-top thermomixer at 37 °C for 45 s. Otherwise stated, the reaction buffer contained 50 mM Tris pH 7.5, 50 mM NaCl, and 5 mM TCEP. […]
(§4) Peptide and protein samples were injected onto a Chromolith RP-18 Endcapped HPLC Columns (100–2 mm; Merck) and Discovery BIO Wide Pore C5 HPLC Column (Supelco), respectively, heated to 40 °C and eluted at 0.3 ml/min using a gradient of 95% deionized water supplemented with 0.1% (v/v) formic acid to 95% acetonitrile. Oxidation was monitored by an ultra high-performance liquid chromatography MS using ExionLC AD (Sciex) and SelexION (Sciex) mass spectrometer operated in a positive electrospray TOF (+ESI-TOF) mode. […]

ADO-Co^2+ = molecular target: T3, ADO-Co^2+; test: LC-MS turnover time course with cobalt-substituted ADO; assay type: biochemical; settings: 100 μM peptide, 0.1 μM enzyme, 37 °C, attributed to residual iron bound ADO
Experimental: as §2, §3, §4

ADO = molecular target: T4, ADO; test: 15N-HSQC NMR titration with ADO; assay type: binding; settings: 50 μM 15N-labelled protein, 20 mM Hepes pH 7.5, 150 mM NaCl, 10 mM DTT, ADO up to 800 μM
Experimental: (§5) For titrations with ADO, ^15N-labeled RGS5^FL proteins were prepared at 50 μM, in buffer containing 20 mM Hepes pH 7.5, 150 mM NaCl, 10 mM DTT, and 10% (v/v) D2O. ^15N-HSQC spectra were collected before and after the addition of ADO to the labeled RGS5^FL samples. Intensity-based CSP plots were produced by calculating peak height values from the ^15N-HSQCs before and after addition of ADO and normalizing against the heights of ∼5 peaks from the HSQC that remained invariant throughout the titration.

ADO-H193D = molecular target: T5, ADO-H193D; test: 15N-HSQC NMR titration with ADO-H193D; assay type: binding; settings: 50 μM 15N-labelled protein, 150 μM ADO-H193D
Experimental: as §5

Molecule	Kd [1] [nM]	Kd (ADO-Zn^2+ [2]) [nM]	Conversion by ADO-Zn^2+ overnight (ADO-Zn^2+ [3]) [%]	Conversion by ADO-Co^2+ overnight (ADO-Co^2+) [%]	15N-HSQC chemical shift perturbations on titration of ADO (ADO)	15N-HSQC interaction on titration of ADO-H193D (ADO-H193D)
CC(C)C[C@H](NC(=O)CNC(=O)[C@H](CCCCN)NC(=O)[C@@H](N)CS)C(=O)N[C@@H](C)C(=O)N[C@@H](C)C(=O)N[C@@H](CC(C)C)C(=O)N1CCC[C@H]1C(=O)N[C@@H](Cc1c[nH]cn1)C(=O)N[C@@H](CO)C(=O)N[C@@H](CS)C(=O)N[C@@H](CC(C)C)C(=O)N[C@@H](CCC(=O)O)C(=O)N[C@@H](CCCNC(=N)N)C(N)=O [RGS5] (H-CKGLAALPHSCLER-NH2)	290 ± 45	250 ± 370	~80	~80	–	–
RGS5^FL-C2S: full-length RGS5 C2S mutant (protein, left off: His tag, N-terminal, cleaved | SUMO, N-terminal, cleaved, full-length RGS5 C2S mutant) MSKGLAALPHSCLERAKEIKIKLGILLQKPDSVGDLVIPYNEKPEKPAKTQKTSLDEALQWRDSLDKLLQNNYGLASFKSFLKSEFSEENLEFWIACEDYKKIKSPAKMAEKAKQIYEEFIQTEAPKEVNIDHFTKDITMKNLVEPSLSSFDMAQKRIHALMEKDSLPRFVRSEFYQELIK	–	–	–	–	induced CSPs in the portion of the ^15N-HSQC corresponding to the disordered N terminus of RGS5	no interaction was observed
